System: post-menopausal women
Assay: Example 2 dose-finding study: weekly frequency of moderate to severe VMS (absolute and relative change, responders)
Format: in vivo, human
Details: for Weekly frequency of moderate to severe VMS, relative change (% from baseline), Mean: section B analysis
Source text: Enrolment was approximately 18 months. Individual subject participation was up to 27 weeks: up to 6 weeks pre-screening and washout, up to 4 weeks screening and run-in period, up to 91 days (13 weeks) of E4 monohydrate or placebo treatment followed by 2 weeks (14 days) of progestin therapy and a Follow up visit 1 week after completion of progestin therapy in non-hysterectomied subjects only.
To define the minimum effective dose (MED) of the oral dose of E4 by evaluating changes in frequency and in severity of moderate to severe vasomotor symptoms (VMS).
This was a prospective, multicentre, randomised, placebo-controlled, double-blinded, dose-finding study.
Eligible subjects were hysterectomied and non-hysterectomied post-menopausal women aged 40 to 65 years, inclusive, presenting at least 7 moderate to severe hot flushes/day or at least 50 moderate to severe hot flushes/week.
All treatments (Estetrol, hereinafter E4 as monohydrate, [2.5 mg, 5 mg, 10 mg, 15 mg] capsule) were administered once daily (QD) per os for at least 12 consecutive weeks until the last biological assessments (Day 91 maximum) had been performed.
In order to analyse the data recorded in this study, treatment groups have been compared using an ANCOVA (analysis of covariance) with respect to the change in weekly frequency of moderate to severe VMS from baseline to weeks 4 and 12. The ANCOVA model includes treatment (“trt1”) and study centre (“SITEPOOL”) as a fixed effect and baseline (“base”) as a covariate.
VMS frequency was also studied by grouping patients according to their degree of response.

SMILES: C[C@]12CC[C@@H]3c4ccc(O)cc4CC[C@H]3[C@@H]1[C@@H](O)[C@@H](O)[C@@H]2O [E4 monohydrate, estetrol monohydrate]
- Mean change from baseline in weekly frequency of moderate to severe VMS (2.5 mg QD, week 0): 0.00
- Mean relative change (% from baseline) in weekly frequency of moderate to severe VMS (2.5 mg QD, week 0): 0%
- Mean relative change (% from baseline) in weekly frequency of moderate to severe VMS (2.5 mg QD, week 1): −23%
- Mean relative change (% from baseline) in weekly frequency of moderate to severe VMS (2.5 mg QD, week 2): −34%
- Mean relative change (% from baseline) in weekly frequency of moderate to severe VMS (2.5 mg QD, week 3): −44%
- Mean relative change (% from baseline) in weekly frequency of moderate to severe VMS (2.5 mg QD, week 4): −49%
- Mean relative change (% from baseline) in weekly frequency of moderate to severe VMS (2.5 mg QD, week 5): −50%
- Mean relative change (% from baseline) in weekly frequency of moderate to severe VMS (2.5 mg QD, week 6): −54%
- Mean relative change (% from baseline) in weekly frequency of moderate to severe VMS (2.5 mg QD, week 7): −57%
- Mean relative change (% from baseline) in weekly frequency of moderate to severe VMS (2.5 mg QD, week 8): −58%
- Mean relative change (% from baseline) in weekly frequency of moderate to severe VMS (2.5 mg QD, week 9): −61%
- Mean relative change (% from baseline) in weekly frequency of moderate to severe VMS (2.5 mg QD, week 10): −61%
- Mean relative change (% from baseline) in weekly frequency of moderate to severe VMS (2.5 mg QD, week 11): −60%
- Mean relative change (% from baseline) in weekly frequency of moderate to severe VMS (2.5 mg QD, week 12): −61%
- Mean change from baseline in weekly frequency of moderate to severe VMS (5 mg QD, week 0): 0.00
- Mean relative change (% from baseline) in weekly frequency of moderate to severe VMS (5 mg QD, week 0): 0%
- Mean relative change (% from baseline) in weekly frequency of moderate to severe VMS (5 mg QD, week 1): −23%
- Mean relative change (% from baseline) in weekly frequency of moderate to severe VMS (5 mg QD, week 2): −33%
- Mean relative change (% from baseline) in weekly frequency of moderate to severe VMS (5 mg QD, week 3): −38%
- Mean relative change (% from baseline) in weekly frequency of moderate to severe VMS (5 mg QD, week 4): −43%
- Mean relative change (% from baseline) in weekly frequency of moderate to severe VMS (5 mg QD, week 5): −47%
- Mean relative change (% from baseline) in weekly frequency of moderate to severe VMS (5 mg QD, week 6): −57%
- Mean relative change (% from baseline) in weekly frequency of moderate to severe VMS (5 mg QD, week 7): −57%
- Mean relative change (% from baseline) in weekly frequency of moderate to severe VMS (5 mg QD, week 8): −57%
- Mean relative change (% from baseline) in weekly frequency of moderate to severe VMS (5 mg QD, week 9): −59%
- Mean relative change (% from baseline) in weekly frequency of moderate to severe VMS (5 mg QD, week 10): −60%
- Mean relative change (% from baseline) in weekly frequency of moderate to severe VMS (5 mg QD, week 11): −63%
- Mean relative change (% from baseline) in weekly frequency of moderate to severe VMS (5 mg QD, week 12): −62%
- Mean relative change (% from baseline) in weekly frequency of moderate to severe VMS (10 mg QD, week 1): −21%
- Mean relative change (% from baseline) in weekly frequency of moderate to severe VMS (10 mg QD, week 2): −37%
- Mean relative change (% from baseline) in weekly frequency of moderate to severe VMS (10 mg QD, week 3): −48%
- Mean relative change (% from baseline) in weekly frequency of moderate to severe VMS (10 mg QD, week 4): −55%
- Mean relative change (% from baseline) in weekly frequency of moderate to severe VMS (10 mg QD, week 5): −60%
- Mean relative change (% from baseline) in weekly frequency of moderate to severe VMS (10 mg QD, week 6): −65%
- Mean relative change (% from baseline) in weekly frequency of moderate to severe VMS (10 mg QD, week 10): −70%
- Mean relative change (% from baseline) in weekly frequency of moderate to severe VMS (10 mg QD, week 11): −70%
- Mean relative change (% from baseline) in weekly frequency of moderate to severe VMS (10 mg QD, week 12): −72%
- Weekly frequency of moderate to severe VMS, relative change (% from baseline), Mean (10 mg daily, week 0): 0%
- Weekly frequency of moderate to severe VMS, relative change (% from baseline), Mean (10 mg daily, week 1): −21%
- Weekly frequency of moderate to severe VMS, relative change (% from baseline), Mean (10 mg daily, week 2): −37%
- Weekly frequency of moderate to severe VMS, relative change (% from baseline), Mean (10 mg daily, week 3): −48%
- Weekly frequency of moderate to severe VMS, relative change (% from baseline), Mean (10 mg daily, week 4): −55%
- Weekly frequency of moderate to severe VMS, relative change (% from baseline), Mean (10 mg daily, week 5): −60%
- Weekly frequency of moderate to severe VMS, relative change (% from baseline), Mean (10 mg daily, week 6): −65%
- Weekly frequency of moderate to severe VMS, relative change (% from baseline), Mean (10 mg daily, week 7): −66%
- Weekly frequency of moderate to severe VMS, relative change (% from baseline), Mean (10 mg daily, week 8): −68%
- Weekly frequency of moderate to severe VMS, relative change (% from baseline), Mean (10 mg daily, week 9): −69%
- Weekly frequency of moderate to severe VMS, relative change (% from baseline), Mean (10 mg daily, week 10): −70%
- Weekly frequency of moderate to severe VMS, relative change (% from baseline), Mean (10 mg daily, week 11): −70%
- Weekly frequency of moderate to severe VMS, relative change (% from baseline), Mean (10 mg daily, week 12): −72%
- Mean relative change (% from baseline) in weekly frequency of moderate to severe VMS (15 mg QD, week 2): −46%
- Mean relative change (% from baseline) in weekly frequency of moderate to severe VMS (15 mg QD, week 3): −57%
- Mean relative change (% from baseline) in weekly frequency of moderate to severe VMS (15 mg QD, week 4): −67%
- Mean relative change (% from baseline) in weekly frequency of moderate to severe VMS (15 mg QD, week 8): −79%
- Mean relative change (% from baseline) in weekly frequency of moderate to severe VMS (15 mg QD, week 10): −80%
- Mean relative change (% from baseline) in weekly frequency of moderate to severe VMS (15 mg QD, week 11): −82%
- Mean relative change (% from baseline) in weekly frequency of moderate to severe VMS (15 mg QD, week 12): −84%
- Weekly frequency of moderate to severe VMS, relative change (% from baseline), Mean (15 mg daily, week 0): 0%
- Weekly frequency of moderate to severe VMS, relative change (% from baseline), Mean (15 mg daily, week 1): −22%
- Weekly frequency of moderate to severe VMS, relative change (% from baseline), Mean (15 mg daily, week 2): −46%
- Weekly frequency of moderate to severe VMS, relative change (% from baseline), Mean (15 mg daily, week 3): −57%
- Weekly frequency of moderate to severe VMS, relative change (% from baseline), Mean (15 mg daily, week 4): −67%
- Weekly frequency of moderate to severe VMS, relative change (% from baseline), Mean (15 mg daily, week 5): −72%
- Weekly frequency of moderate to severe VMS, relative change (% from baseline), Mean (15 mg daily, week 6): −76%
- Weekly frequency of moderate to severe VMS, relative change (% from baseline), Mean (15 mg daily, week 7): −79%
- Weekly frequency of moderate to severe VMS, relative change (% from baseline), Mean (15 mg daily, week 8): −79%

Reference: US20260207623A1, “USE OF ESTETROL IN HEPATICALLY IMPAIRED PATIENTS” (ESTETRA SRL, priority 2022, published 2026)
